Usually EC50 stands for the concentration giving half of the maximal effect.

Structures can show the parent of a compound that is named as a salt.

This assay deals with T1, 5-HT1 -like receptor (Oryctolagus cuniculus, UniProt P49144).
T1 construct: contraction of the saphenous vein of New Zealand White rabbits; from tissue; host or cells: saphenous vein of New Zealand White rabbits
The experiment in a line: Agonist activity at 5-HT1-like receptor: contraction of the saphenous vein of New Zealand White rabbits. To be noted: rabbit saphenous vein; from plots of percentage 5-HT (1 μM) response against concentration of agonist; read-out: EC50 (agonist potency, contraction of saphenous vein). The procedure: The activity of test compounds as agonists of the 5-HT1 -like receptor was measured in terms of their ability to mediate contraction of the saphenous vein of New Zealand White rabbits, using the procedure described in Arch. Pharm., 1990, 342, 111. Agonist potencies were calculated as EC50 values, from plots of percentage 5-HT (1 μM) response against the concentration of the agonist.

T1 sequence (P49144 whole entry): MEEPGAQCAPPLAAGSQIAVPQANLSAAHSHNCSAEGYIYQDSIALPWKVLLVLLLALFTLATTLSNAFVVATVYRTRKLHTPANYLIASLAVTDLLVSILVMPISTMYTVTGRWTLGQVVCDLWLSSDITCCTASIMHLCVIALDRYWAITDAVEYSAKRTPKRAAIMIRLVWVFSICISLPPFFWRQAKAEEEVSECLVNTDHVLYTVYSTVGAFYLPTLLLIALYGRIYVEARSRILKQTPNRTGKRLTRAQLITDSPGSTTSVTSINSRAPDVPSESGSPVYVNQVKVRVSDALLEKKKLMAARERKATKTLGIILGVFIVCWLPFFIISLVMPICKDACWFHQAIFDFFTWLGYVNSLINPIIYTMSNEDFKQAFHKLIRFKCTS

As to `CN1CCN(CCCc2c[nH]c3ccc(-n4cnnc4)cc23)CC1` [Example 5, 1-(3-[5-(1,2,4-Triazol-4-yl)-1H-indol-3-yl]propyl)-4-(methyl)piperazine. 3.5 Hydrogen Oxalate Monohydrate], the EC50 is < 5 µM.
As for `c1cc2[nH]cc(CCCN3CCNCC3)c2cc1-n1cnnc1` [Example 4, 1-(3-[5-(1,2,4-Triazol-4-yl)-1H-indol-3-yl]propyl)-4-(H)-piperazine. 3.5 Hydrogen Oxalate], the figure is < 5 µM.

For the origin of these results see patent US5552402A, “Five-membered heteroaromatic compounds as 5-HT receptor agonists” (Merck, Sharp & Dohme Ltd., priority 1994, dated 1996).
